Laboratory results published in patent US20190270992A1, “METHODS OF CONTROLLING RED BLOOD CELL PRODUCTION” (WISCONSIN ALUMNI RESEARCH FOUNDATION, priority 2018, published 2019).
“Also recorded” adds a separate entry of the source.

Experiments:
[1] = test system: G1E-ER-GATA-1 cells; assay: 5-ALA rescue of heme biosynthesis, qRT-PCR of zinc transporter genes; format: cell-based, murine; details: 1 mM 5-ALA to bypass ALAS-2 and rescue heme biosynthesis; FIG. 3B
Experimental: Cell culture. G1E-ER-GATA-1 cells were cultured in Iscove's modified Dulbecco's medium (IMDM; Gibco) containing 15% FBS (Gemini), 1% penicillin-streptomycin (Gemini), 2 U/ml erythropoietin (Amgen), 120 nM monothioglycerol (Sigma), and 0.6% conditioned medium from a Kit ligand-producing CHO cell line, and 1 μg/ml puromycin (Gemini). ER-GATA-1 activity was induced by adding 1 μM β-estradiol (Steraloids) to media. To rescue heme synthesis, 1 mM 5-aminolevulinic acid hydrochloride (5-ALA; Sigma) was added to media.
(§1) qRT-PCR. Total RNA was purified from 0.4-2×10^6 cells with TRIzol® (Life Technologies). RNA was treated with DNase I (Life Technologies) for 15 min at room temperature. DNase I was inactivated by EDTA and heating at 65° C. for 10 min. DNase I-treated RNA was incubated with 125 ng of a 5:1 mixture of oligo (dT) primers and random hexamer at 68° C. for 10 min. RNA/primers were incubated with Moloney MLV reverse transcriptase (Life Technologies), 10 mM DTT (Life Technologies), RNAsin® (Promega), and 0.5 mM deoxynucleoside triphosphates at 42° C. for 1 h, and then heat inactivated at 98° C. for 5 min. Real-time PCR reactions were conducted with Power SYBR® Green Master Mix (Applied Biosystems) using ViiA™ 7 Real-Time PCR system (Applied Biosystems). Primer sequences are described in Table 1.

[2] = test system: mononuclear cells from G-CSF-mobilized peripheral blood; assay: Heme quantitation after succinylacetone in human erythroid differentiation culture; format: cell-based; details: succinylacetone during the last four days of culture; day 20
Experimental: (§2) Primary human mononuclear cells were isolated from G-CSF-mobilized peripheral blood using Histopaque® (Sigma). Cells were maintained in StemSpan™ SFEM medium (Stem Cell Technologies) supplemented with 1×CC100 cytokine mix (Stem Cell Technologies) for 4 days. […]
Heme quantitation. […] Electronic absorption spectra of cleared lysates were recorded on a Varian Cary 4 Bio spectrophotometer, and the oxyhemoglobin concentration of each cleared lysate was calculated using extinction coefficients at 542 nm and 577 nm for human oxyhemoglobin monomers. Total heme in each cleared lysate was determined for two technical replicates using the pyridine hemochrome assay in which 200 μl of a stock solution of 0.1 N NaOH and 33% (v/v) pyridine was combined with 100 μl of the cleared lysate. Upon addition of 2-5 mg of sodium dithionite, electronic absorption spectra were recorded, and total heme concentrations were calculated using known extinction coefficients of the ferrous bis(pyridine) protoheme complex at 525 nm and 556 nm as is known in the art.

[3] = test system: mononuclear cells from G-CSF-mobilized peripheral blood; assay: Cellularity after succinylacetone (flow cytometry, Wright-Giemsa staining); format: cell-based, human; details: succinylacetone during the last four days of culture
Experimental: as §2
(§3) Flow cytometry. For intracellular zinc quantitation in mouse cells, cells were washed twice with PBS and incubated with 1 l/ml Ghost Dye™ Red 780 (TONBO Biosciences) for 30 min at 4° C. […] Cells were then washed twice with PBS and analyzed. […] Cells were then washed twice with PBS and analyzed. For intracellular zinc quantitation in human cells, cells were washed twice with HBSS and incubated with HBSS containing 1 μM FluoZin™-3 AM, 0.02% Pluronic® F-127, PE-conjugated anti-human CD71 (0.024 μg in 100 μl, eBioscience, 12-0719-42), and APC-conjugated anti-human CD235a (0.006 μg in 100 μl, eBioscience 17-9987-42) for 30 min at room temperature. […] Cells were then washed twice with PBS, stained with DAPI, and analyzed. Samples were analyzed using a BD LSR II (BD Biosciences). […]

[4] = test system: mononuclear cells from G-CSF-mobilized peripheral blood; assay: qRT-PCR of gene expression after succinylacetone in human erythroid differentiation culture; format: cell-based; details: succinylacetone vs no treatment, day 19 and 20
Experimental: Primary human mononuclear cells were isolated from G-CSF-mobilized peripheral blood using Histopaque® (Sigma). Cells were maintained in StemSpan™ SFEM medium (Stem Cell Technologies) supplemented with 1×CC100 cytokine mix (Stem Cell Technologies) for 4 days. To induce differentiation, cells were cultured in basal differentiation media [IMDM containing 15% FBS, 2 mM L-glutamine, 1% BSA (Sigma), 500 μg/ml holo human transferrin (Sigma), and 10 [μg/ml insulin (Sigma)] supplemented with 1 μM dexamethasone (Sigma), 1 μM β-estradiol (Steraloids), 5 ng/ml IL-3, 100 ng/ml SCF, and 6 U/ml erythropoietin (Amgen) for 5 days, followed by four days in basal differentiation media supplemented with 50 ng/ml SCF and 6 U/ml erythropoietin and then seven days in basal differentiation media containing 2 U/ml erythropoietin.
as §1

[5] = test system: lineage-negative fetal liver-derived hematopoietic precursors; assay: Zinc chelation with TPEN and ZnCl2 add-back, flow cytometry (FluoZin-3, live/dead, CD71, Ter119); format: cell-based, murine
Experimental: (§4) Primary erythroid precursors from E14.5 murine fetal livers were cultured in StemPro®-34 (Gibco) supplemented with 10% nutrient supplement (Gibco), 1×L-glutamine (Cellgro), 1% penicillin-streptomycin (Gemini), 0.1 mM monothioglycerol (Sigma), 1 NM dexamethasone (Sigma), 0.5 U/ml erythropoietin (Amgen), and 1% conditioned medium from a Kit ligand-producing CHO cell line (expansion culture). To chelate zinc, 10 NM N,N,N′,N′-Tetrakis(2-pyridylmethyl)ethylenediamine (TPEN, Sigma, P4413) was added to the media, and 20 NM ZnCl2 (Fisher Scientific) was added back. After two days, cells were differentiated in IMDM (Gibco) containing 10% FBS (Gemini), 10% plasma-derived serum (PDS; Animal Technologies), 5% protein-free hybridoma medium II (PFHM II; Gibco), 1% penicillin-streptomycin (Gemini), 0.1 mM monothioglycerol (Sigma) and 6 U/ml of erythropoietin (Amgen).
Flow cytometry. For intracellular zinc quantitation in mouse cells, cells were washed twice with PBS and incubated with 1 l/ml Ghost Dye™ Red 780 (TONBO Biosciences) for 30 min at 4° C. Cells were washed once with PBS containing 2% FBS and twice with HBSS, and treated with HBSS containing 1 μM FluoZin™-3 AM (Invitrogen), 0.02% Pluronic® F-127 (Invitrogen), BV421-conjugated anti-mouse CD71 (0.2 μg in 100 μl, Biolegend, 113813), and APC-conjugated anti-mouse Ter119 (0.2 μg in 100 μl, Biolegend, 116212) for 30 min at room temperature. Cells were washed once with HBSS and incubated for 15 min at room temperature. Cells were then washed twice with PBS and analyzed. […] Cells were then washed twice with PBS and analyzed. For intracellular zinc quantitation in human cells, cells were washed twice with HBSS and incubated with HBSS containing 1 μM FluoZin™-3 AM, 0.02% Pluronic® F-127, PE-conjugated anti-human CD71 (0.024 μg in 100 μl, eBioscience, 12-0719-42), and APC-conjugated anti-human CD235a (0.006 μg in 100 μl, eBioscience 17-9987-42) for 30 min at room temperature. […] Cells were then washed twice with PBS, stained with DAPI, and analyzed. Samples were analyzed using a BD LSR II (BD Biosciences). […]

[6] = test system: Slc30a1 mRNA; assay: shRNA-mediated knockdown, qRT-PCR of Slc30a1 mRNA; format: cell-based, mouse; details: off-target check
Experimental: as §4
(§5) qRT-PCR. Total RNA was purified from 0.4-2×10^6 cells with TRIzol® (Life Technologies). RNA was treated with DNase I (Life Technologies) for 15 min at room temperature. DNase I was inactivated by EDTA and heating at 65° C. for 10 min. DNase I-treated RNA was incubated with 125 ng of a 5:1 mixture of oligo (dT) primers and random hexamer at 68° C. for 10 min. […]

[7] = test system: lineage-negative hematopoietic precursors (E14.5); assay: Thiazole orange (TO) discrimination of nucleated erythroblasts and enucleated progeny in shRNA knockdown cells; format: cell-based, murine; details: expanded 2 days, differentiated 3 days
Experimental: (§6) Primary erythroid precursors from E14.5 murine fetal livers were cultured in StemPro®-34 (Gibco) supplemented with 10% nutrient supplement (Gibco), 1×L-glutamine (Cellgro), 1% penicillin-streptomycin (Gemini), 0.1 mM monothioglycerol (Sigma), 1 NM dexamethasone (Sigma), 0.5 U/ml erythropoietin (Amgen), and 1% conditioned medium from a Kit ligand-producing CHO cell line (expansion culture). To chelate zinc, 10 NM N,N,N′,N′-Tetrakis(2-pyridylmethyl)ethylenediamine (TPEN, Sigma, P4413) was added to the media, and 20 NM ZnCl2 (Fisher Scientific) was added back. […]
as §3

[8] = test system: lineage-negative hematopoietic precursors (E14.5); assay: Intracellular zinc (FluoZin-3 flow cytometry) in shRNA knockdown cells; format: cell-based, murine
Experimental: as §6, §3

[9] = test system: lineage-negative hematopoietic precursors (E14.5); assay: Erythroid populations (CD71, Ter119, FSC-A flow cytometry) in shRNA knockdown cells; format: cell-based, murine; details: day 5
Experimental: as §6, §3

[10] = test system: Slc39a8 mRNA; assay: shRNA-mediated knockdown, qRT-PCR of Slc39a8 mRNA; format: cell-based, mouse; details: Luciferase shRNA as control
Experimental: as §4, §5

In the case of Cl.NCC(=O)CCC(=O)O [5-ALA, 5-aminolevulinic acid hydrochloride], the Slc30a1 expression [1] is reported as “increased”.
In the case of CC(=O)CC(=O)CCC(=O)O [Succinylacetone, succinylacetone], the “decrease of heme in oxyhemoglobin” value [2] is reported as 3.4 fold, the “decrease of total heme” value [2] is reported as 2.9 fold and the cellularity [3] is reported as “did not impact”. The ACTB expression [4] was “unaffected”, the HBA1 expression [4] was “reduced” and the HBB expression [4] was “reduced”. The SLC30A1 expression [4] was “reduced”.
With c1ccc(CN(CCN(Cc2ccccn2)Cc2ccccn2)Cc2ccccn2)nc1 [TPEN, N,N,N′,N′-Tetrakis(2-pyridylmethyl)ethylenediamine] the live cell population ([5]; 10 NM TPEN in expansion culture, day 3) was “considerably decreased” and the “intracellular zinc levels in erythroid precursors of varying maturation stage” value ([5]; 10 NM TPEN in expansion culture, FluoZin-3 MFI) was “reduced”.
[Cl-].[Cl-].[Zn+2] [ZnCl2] was tested, and the “effect of adding ZnCl2 to the media on the actions of TPEN” value ([5]; 10 NM TPEN, 20 NM ZnCl2 added back) was “negated the actions of TPEN”.
In the case of “TGATAATTGTCACTGACAG (listed as DNA, chemistry not fully specified) [shRNAs targeting Slc39a8, retrovirus-expressed shRNA against mouse zinc importer Slc39a8]”, the “Slc30a1 mRNA levels upon Slc39a8 loss” value [6] is reported as “did not impact”, the “cell populations (CD71/TO)” value [7] is reported as “did not influence” and the “intracellular zinc in all (more mature) populations” value ([8]; erythroid differentiation culture, day 5) is reported as “no effect; also recorded: did not alter”. For the same compound, the “decrease of intracellular zinc in R3 cells” value ([8]; expansion culture, day 2) was 3.3 fold, the cellularity [9] was “did not impact” and the “downregulation of Slc39a8 mRNA” value ([10]; day five (expanded two days, differentiated three days)) was 71%. For the same compound, the “downregulation of Slc39a8 mRNA” value ([10]; day two (expanded for two days)) was 86%.
